Measured values from ChEMBL document CHEMBL1143685, “Sulfated glucosamine inhibits MMP-2 and MMP-9 expressions in human fibrosarcoma cells” (Bioorg Med Chem, 2007).
Active and inactive are the calls of the source. No cut-off for these calls is given here.

Experiments:
HT-1080 [1] = experiment: Toxicity against human HT1080 cells assessed as cell viability after 24 hrs by MTT assay; type: cell-based; conditions: ht-1080, 24 h
MRC5 = experiment: Toxicity against human MRC5 cells assessed as cell viability after 24 hrs by MTT assay; type: cell-based; conditions: mrc5, 24 h
HT-1080 [2] = experiment: Inhibition of MMP9 expression in human HT1080 cells; type: functional, cell-based
HT-1080 [3] = experiment: Inhibition of MMP2 expression in human HT1080 cells; type: functional, cell-based
HT-1080 [4] = experiment: Inhibition of NF-kappaB promoter activity in human HT1080 cells; type: functional, cell-based
HT-1080 [5] = experiment: Inhibition of PMA-stimulated activator protein-1 promotor activity in human HT1080 cells; type: functional, cell-based

`N[C@@H](C=O)[C@@H](O)[C@H](O)[C@H](O)COS(=O)(=O)O` was tested, and the Activity (HT-1080 [1]) was “Active”, the Activity (MRC5) was “Active” and the Activity (HT-1080 [2]) was “Dose-dependent effect”. For the same molecule, the Activity (HT-1080 [3]) was “Dose-dependent effect”, the Activity (HT-1080 [4]) was “Dose-dependent effect” and the Activity (HT-1080 [5]) was “inactive”.
